According to patent US10722514B2 (FLX Bio, Inc., priority 2017, dated 2020):
pIC50: −log10 of the molar value. Structures can show the parent of a compound that is named as a salt.

These compounds were tested against T1, recombinant full-length USP7 (Homo sapiens, UniProt Q93009) (assay: USP7-mediated ubiquitin-rhodamine cleavage assay). Conditions: recombinant full-length USP7 62 pM; ubiquitin-rhodamine 100 nM; 30-minute incubation with compound, 1 hour reaction at room temperature; read-out: Potency: USP7 IC50.
T1 construct: A 25 μl reaction volume containing recombinant full-length USP7 (62 pM)
T1 sequence (Q93009 whole entry): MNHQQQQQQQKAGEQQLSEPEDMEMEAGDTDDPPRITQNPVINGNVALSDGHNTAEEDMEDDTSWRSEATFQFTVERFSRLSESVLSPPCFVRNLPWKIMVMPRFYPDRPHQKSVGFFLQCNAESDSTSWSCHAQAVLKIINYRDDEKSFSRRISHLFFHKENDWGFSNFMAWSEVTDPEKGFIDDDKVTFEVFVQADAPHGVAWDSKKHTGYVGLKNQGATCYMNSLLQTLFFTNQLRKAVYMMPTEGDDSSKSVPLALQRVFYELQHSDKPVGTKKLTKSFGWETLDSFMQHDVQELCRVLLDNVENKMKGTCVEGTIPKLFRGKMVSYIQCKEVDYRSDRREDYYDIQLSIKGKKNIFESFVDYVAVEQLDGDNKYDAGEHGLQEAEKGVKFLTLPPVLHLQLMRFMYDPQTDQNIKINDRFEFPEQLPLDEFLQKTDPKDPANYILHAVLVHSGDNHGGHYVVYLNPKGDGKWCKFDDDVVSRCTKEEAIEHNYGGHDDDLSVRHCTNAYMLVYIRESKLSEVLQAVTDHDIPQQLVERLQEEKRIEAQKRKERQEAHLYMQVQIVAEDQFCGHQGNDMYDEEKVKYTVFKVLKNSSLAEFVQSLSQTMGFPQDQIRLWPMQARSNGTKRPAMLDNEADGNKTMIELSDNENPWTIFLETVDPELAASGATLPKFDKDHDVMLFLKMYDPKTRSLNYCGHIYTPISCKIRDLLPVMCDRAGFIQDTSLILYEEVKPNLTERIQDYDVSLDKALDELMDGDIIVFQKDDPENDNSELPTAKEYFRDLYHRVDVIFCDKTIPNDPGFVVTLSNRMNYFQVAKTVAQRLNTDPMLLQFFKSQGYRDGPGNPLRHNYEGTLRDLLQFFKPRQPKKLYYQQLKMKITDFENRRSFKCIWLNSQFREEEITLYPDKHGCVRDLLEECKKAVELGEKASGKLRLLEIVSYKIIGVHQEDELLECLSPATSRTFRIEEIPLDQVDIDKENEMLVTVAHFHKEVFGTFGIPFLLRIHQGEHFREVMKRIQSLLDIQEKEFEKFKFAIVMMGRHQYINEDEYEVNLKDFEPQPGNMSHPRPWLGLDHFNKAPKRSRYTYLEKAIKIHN
Type: biochemical
Procedure, shortened: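 USP7 (62 pM) in 20 mM HEPES pH 7.3, 150 mM NaCl, 1 mM TCEP, 125 μg/ml BSA was preincubated with compound (1% DMSO) for 30 min at room temperature. Ubiquitin-rhodamine (100 nM final) was then added for 1 hour, the reaction stopped with acetic acid, and fluorescence read; IC50 from 4-parameter fit.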
`Cc1cc(Cl)cc(-c2ccnc3cc(CN4C(=O)CCC4=O)sc23)c1O[C@H]1CCNC[C@H]1C` [Example 229, 1-((7-(5-Chloro-3-methyl-2-(((3R,4S)-3-methylpiperidin-4-yl)oxy)phenyl)thieno[3,2-b]pyridin-2-yl)methyl)pyrrolidine-2,5-dione] was tested, and the pIC50 was greater than 6.00. `Cc1cc(Cl)cc(-c2ccnc3cc(CN4C(=O)CN(C)C4=O)sc23)c1O[C@@H]1CNC[C@@H]1F` [Example 144, 3-((7-(5-Chloro-2-(((3R,4S)-4-fluoropyrrolidin-3-yl)oxy)-3-methylphenyl)thieno[3,2-b]pyridin-2-yl)methyl)-1-methylimidazolidine-2,4-dione] gave a pIC50 of 5.00 to 6.00. `Cc1cc(Cl)cc(-c2ncnc3cc(CN4C(=O)C5C(C4=O)C5(C)C)sc23)c1O[C@@H]1CCNC[C@@H]1C` (stereo partly drawn) [Example 365, 3-[[4-[5-chloro-3-methyl-2-[[(3S,4R)-3-methyl-4-piperidyl]oxy]phenyl]thieno[3,2-d]pyrimidin-6-yl]methyl]-6,6-dimethyl-3-azabicyclo[3.1.0]hexane-2,4-dione dihydrochloride] was tested, and the pIC50 was greater than 6.00. `CCC(O)c1cc2nccc(-c3cc(Cl)cc(C)c3OCC3CNC3)c2s1` (stereo not shown) [Example 14, 1-(7-(2-(Azetidin-3-ylmethoxy)-5-chloro-3-methylphenyl)thieno[3,2-b]pyridin-2-yl)propan-1-ol] showed a pIC50 of 5.00 to 6.00. `Cc1cc(Cl)cc(-c2ccnc3cc(CN4C(=O)CCC4=O)sc23)c1O[C@@H]1CC[C@@H](N)C1` [Example 126, 1-((7-(2-(((1R,3R)-3-Aminocyclopentyl)oxy)-5-chloro-3-methylphenyl)thieno[3,2-b]pyridin-2-yl)methyl)pyrrolidine-2,5-dione] was tested, and the pIC50 was greater than 6.00. In the case of `CCN1CC(Oc2c(C)cc(Cl)cc2-c2ccnc3cc(CN4C(=O)C5C(C4=O)C5(C)C)sc23)C(C)(F)C1` (stereo not shown) [Example 374, 3-[[7-[5-chloro-2-(1-ethyl-4-fluoro-4-methyl-pyrrolidin-3-yl)oxy-3-methyl-phenyl]thieno[3,2-b]pyridin-2-yl]methyl]-6,6-dimethyl-3-azabicyclo[3.1.0]hexane-2,4-dione dihydrochloride], the pIC50 was greater than 6.00. For `Cc1cc(Cl)cc(-c2ccnc3cc(CN4C(=O)CCNC4=O)sc23)c1O[C@@H]1CNC[C@@H]1F` [Example 152, 3-((7-(5-Chloro-2-(((3R,4S)-4-fluoropyrrolidin-3-yl)oxy)-3-methylphenyl)thieno[3,2-b]pyridin-2-yl)methyl)dihydropyrimidine-2,4(1H,3H)-dione], the pIC50 was greater than 6.00. In the case of “1-(7-(2-((3-Azabicyclo[3.1.0]hexan-6-yl)methoxy)-5-chloro-3-methylphenyl)thieno[3,2-b]pyridin-2-yl)propan-1-ol [Example 88]”, the pIC50 was 4.52 to 5.00. Work on `Cc1cc(Cl)cc(-c2ccnc3cc(CN4C(=O)SC(C)(C)C4=O)sc23)c1O[C@H]1CCCNC1` [Example 295, 3-[[7-[5-chloro-3-methyl-2-[[(3S)-3-piperidyl]oxy]phenyl]thieno[3,2-b]pyridin-2-yl]methyl]-5,5-dimethyl-thiazolidine-2,4-dione; 2,2,2-trifluoroacetic acid] yielded a pIC50 greater than 6.00. `O=C1CCC(=O)N1Cc1cc2nccc(-c3cc(Cl)cc(Cl)c3O[C@@H]3CNC[C@@H]3F)c2s1` [Example 123, 1-((7-(3,5-Dichloro-2-(((3R,4S)-4-fluoropyrrolidin-3-yl)oxy)phenyl)thieno[3,2-b]pyridin-2-yl)methyl)pyrrolidine-2,5-dione] was tested, and the pIC50 was greater than 6.00.

Same assay, conditions: recombinant full-length USP7 62 pM; ubiquitin-rhodamine 100 nM; 30-minute incubation, 1 hour reaction at room temperature; read-out: Potency (USP7 IC50)
Work on `Cc1cc(Cl)cc(-c2ccnc3cc(Cn4c(=O)ccn(CC(F)(F)F)c4=O)sc23)c1OC1CC(N2CCC(F)C2)C1` (stereo not shown) [Example 685, 3-[[7-[5-chloro-2-[3-(3-fluoropyrrolidin-1-yl)cyclobutoxy]-3-methyl-phenyl]thieno[3,2-b]pyridin-2-yl]methyl]-1-(2,2,2-trifluoroethyl)pyrimidine-2,4-dione; 2,2,2-trifluoroacetic acid] yielded a pIC50 greater than 6.00.

Same assay, conditions: recombinant full-length USP7 62 pM; ubiquitin-rhodamine 100 nM; 30-minute pre-incubation, 1 hour reaction at room temperature; read-out: Potency (USP7 IC50)
With `Cc1cc(Cl)cc(-c2ccnc3cc(Cn4c(=O)ccn(CC(F)(F)F)c4=O)sc23)c1O[C@@H]1CN[C@@H](C)C1` [Example 632, 3-[[7-[5-chloro-3-methyl-2-[(3S,5S)-5-methylpyrrolidin-3-yl]oxy-phenyl]thieno[3,2-b]pyridin-2-yl]methyl]-1-(2,2,2-trifluoroethyl)pyrimidine-2,4-dione] the pIC50 was greater than 6.00. Compound `Cc1cc(Cl)cc(-c2ccnc3cc(Cn4c(=O)ccn(C)c4=O)sc23)c1O[C@@H]1C[C@H]2COCCN2C1` [Example 501, 3-[[7-[2-[[(7R,8aS)-3,4,6,7,8,8a-hexahydro-1H-pyrrolo[2,1-c][1,4]oxazin-7-yl]oxy]-5-chloro-3-methyl-phenyl]thieno[3,2-b]pyridin-2-yl]methyl]-1-methyl-pyrimidine-2,4-dione] has a pIC50 greater than 6.00. `Cc1cc(Cl)cc(-c2ccnc3cc(Cn4c(=O)ccn(C)c4=O)sc23)c1O[C@@H]1CNC[C@@H](O)C1` [Example 500, 3-[[7-[5-chloro-2-[[(3S,5S)-5-hydroxy-3-piperidyl]oxy]-3-methyl-phenyl]thieno[3,2-b]pyridin-2-yl]methyl]-1-methyl-pyrimidine-2,4-dione] was tested, and the pIC50 was greater than 6.00. `Cc1cc(Cl)cc(-c2ccnc3cc(Cn4c(=O)ccn(CC(F)(F)F)c4=O)sc23)c1OCC1COCCN1` (stereo not shown) [Example 646, 3-[[7-[5-chloro-3-methyl-2-(morpholin-3-ylmethoxy)phenyl]thieno[3,2-b]pyridin-2-yl]methyl]-1-(2,2,2-trifluoroethyl)pyrimidine-2,4-dione; 2,2,2-trifluoroacetic acid] gave a pIC50 greater than 6.00. Compound `CCN1CC[C@@H](Oc2c(C)cc(Cl)cc2-c2ccnc3cc(Cn4c(=O)ccn(C)c4=O)sc23)[C@@H](C)C1` [Example 455, 3-[[7-[5-chloro-2-[[(3S,4R)-1-ethyl-3-methyl-4-piperidyl]oxy]-3-methyl-phenyl]thieno[3,2-b]pyridin-2-yl]methyl]-1-methyl-pyrimidine-2,4-dione] has a pIC50 greater than 6.00.
